Measured values from patent publication US20240208972A1, “LRRK2 INHIBITORS AND USES THEREOF” (NEURON23, INC., priority 2022, published 2024).

Experiments:
[1] = Human liver microsomal clearance (hLM Cl); type: in vitro ADME; settings: cells marked *
Caco-2 cells = experiment: Caco-2 bidirectional permeability; type: in vitro ADME; settings: for Caco-2 A2B (10^−6 cm/s): A to B; for Caco-2 A2B (10^−6 cm/s) / Caco-2 B2A (10^−6 cm/s): HBSS pH 7.4, 2 hours; for Caco-2 B2A (10^−6 cm/s): B to A; for Caco-2 ER: Efflux Ratio=Papp (BA)/Papp (AB)
Protocol: The compounds disclosed herein were tested in vitro on CaCo2 cell penetration according to the following procedures.
Test compounds were prepared in dimethyl sulfoxide (DMSO).
Caco-2 cells purchased from ATCC were seeded onto […] (PET) in 96-well Corning Insert plates at 1×10^5 cells/cm^2. The media were refreshed every 4 to 5 days until the 21st to 28th day for confluent cell monolayer formation.
Experiments were run in duplicate using a HBSS transport buffer containing 10 mM HEPES at pH 7.4. The test article TEST COMPOUND was tested bi-directionally at […] concentrations, the control compound digoxin was tested bi-directionally at 10 μM, and nadolol and metoprolol were tested at 2.0 μM in the A to B direction. Final DMSO concentrations were adjusted to less than 1%. The plates were incubated for 2 hours in a CO2 incubator at 37±1° C. with 5% CO2 at saturated humidity without shaking. Following incubation, samples were mixed with acetonitrile containing internal standard and centrifuged at 3200×g for 10 minutes. Then 200 μL of supernatant was taken from all samples. For TEST COMPOUND and digoxin, the supernatant was diluted with 200 μL of ultra-pure water and for nadolol and metoprolol, the supernatant was diluted with 600 μL of ultra-pure water. All samples were analyzed by LC-MS/MS. Concentrations of TEST COMPOUND and control compounds were determined in starting solutions, donor well solutions, and receiver well solutions using peak area ratios (PAR) of analyte to internal standard. After the transport assay, a lucifer yellow rejection assay was run to determine the Caco-2 cell monolayer integrity.
The apparent permeability (Papp), the % recovery and the efflux ratio were calculated as follows: • 1. Papp=(dCr/dt)×Vr/(A×C0) • 2. % Recovery=100×[(Vr×Cr)+(Vd×Cd)]/(Vd×C0) • 3. Efflux Ratio=Papp (BA)/Papp (AB) • Where: • dCr/dt is the slope of the cumulative concentration in the receiver compartment versus time (mM/s). • Vr and Vd is the volume in the receiver and donor compartments (0.075 mL on the apical side, 0.25 mL on the basolateral side), respectively. • A is the surface area of the cell monolayer (0.0804 cm^2). • C0 is the measured donor concentrations (μM) at the beginning of the experiment. • Cd and Cr are the final measured concentrations in the donor and receiver compartments, respectively.
The cell monolayer tight junction integrity assay was conducted after completion of the transport assay by adding Lucifer Yellow (LY) to the apical wells at 100 μM and incubating the cells for 30 minutes. Following incubation, tight junction integrity was assessed from LY concentrations in the basolateral compartment (receiver well) and the apical compartment (donor well) using fluorescence detection as follows: […]

[2] = target: T1, wt human LRRK2, catalytic site (Homo sapiens, UniProt Q5S007); experiment: TR-FRET LanthaScreen Tb Kinase Activity Assay, LRRK2 kinase inhibition; type: biochemical; settings: 2 nM wt human LRRK2, 400 nM peptide, 38 μM ATP
T1 construct: wt human LRRK2, catalytic site, catalytic site (ThermoFisher/USA); purchased ThermoFisher
Protocol: The compounds disclosed herein were tested for their inhibitory effect on LRRK2 kinase according to the following procedures.
The protocol for basic TR-FRET LanthaScreen Tb Kinase Activity Assay inhibitor studies is as follows. LanthaScreen Kinase Activity Assays (ThermoFisher/USA) to evaluate inhibitors were performed by addition of 100 nL of test compound in the corresponding DMSO dilutions/5 L of kinase/fluorescein-ERM(LRRKtide) peptide mixture, Compound & kinase were pre-incubated for 15 minutes, then 5 μl of ATP into 384 well small volume plates. After incubation for 120 minutes at room temperature, the detection reagents containing Tb-anti-pLRRKtide antibody were added to monitor the phosphrylation level of peptide. Then, after 60 min minutes incubation at room temperature plates were read in Envision. Data analysis of emission ratios was according to the LanthaScreen Tb Kinase Activity Assay protocol.
Kinase and assay components were adjusted to final concentrations according to the kit protocol. For LRRK2: 2 nM wt human LRRK2, catalytic site, catalytic site (ThermoFisher/USA), 400 nM peptide, 38 μM ATP in 1× Kinase Buffer A.
Basic protocol for TR-FRET LanthaScreen Tb Kinase Activity Assay inhibitor studies involved two steps: Enzymatic step: Addition of 100 nl of test compound in corresponding DMSO dilutions, 5 μl of kinase/substrate mixture, 5 μl of ATP into 384 well small volume plates. Incubation for 120 minutes at room temperature.
Detection step: Addition of 10 μl EDTA & antibody, read plate after 60 minutes. Data analysis of emission ratios according to KinEASE assay protocol.
Kinase and assay components were adjusted to final concentrations according to the kit protocol.

[3] = Human hepatocyte stability, in vitro h-Hept CLpredict; type: in vitro ADME; settings: cryopreserved hepatocytes, predicted hepatic clearance, cells without asterisk, read-out: hHep Cl
Protocol: The compounds disclosed herein were tested in vitro on human hepatocyte for in vitro h-Hept CLpredict according to the following procedures. • 1. Compound sock solutions were prepared by dissolving test compound and positive control in dimethyl sulfoxide (DMSO) at a concentration of 10 mM. Stock solutions were then diluted to 100 μM solutions by combining 198 μL of 50% acetonitrile/50% water with 2 μL of the 10 mM stock stock in separate conical tubes. • 2. Cryopreserved hepatocytes were prepared as follows: Incubation medium (William's E Medium supplemented with GlutaMAX) and hepatocyte thawing medium were placed in a 37° C. water bath and allowed to warm for at least 15 minutes prior to use. Cryopreserved hepatocytes were removed from storage, ensuring that vials remained at cryogenic temperatures until thawed. Cells were thawed by placing the vials in a 37° C. water bath and gently shaking the vials for 2 minutes. After thawing was completed, vials were sprayed with 70% ethanol and transferred to a biosafety cabinet. Hepatocytes were transferred into 50 mL conical tube containing thawing medium using wide-bore pipette tips. Tubes were placed into a centrifuge and spun at 100 g for 10 minutes. Then thawing medium was aspirated and hepatocytes were resuspended in enough incubation medium to yield−1.5×10^6 cells/mL. Cells were counted using acridine orange and propidium iodide (AO/PI) staining, and the viable cell density was determined. Cells were diluted with incubation medium to a working cell density of 0.5×10^6 viable cells/mL. • 3. To determine hepatocyte stability, 198 μL of hepatocytes were transferred into each well of a 96-well non-coated plate. Plates were placed in an incubator to allow the hepatocytes to warm for 10 minutes. • 4. The reaction was started by transferring 2 μL of the 100 μM test compound or positive control solution into respective wells of the 96-well non-coated plates. Plates were returned to the incubator until 25 μL aliquots of well contents were sampled at time points of 0, 15, 30, 60, 90 and 120 minutes. The aliquots were then mixed with 6 volumes (150 μL) of acetonitrile containing internal standard, IS (100 nM alprazolam, 200 nM caffeine and 100 nM tolbutamide) to terminate the reaction and vortexed for 5 minutes. After centrifuging the samples for 45 minutes at 3,220 g, aliquots of 100 μL of the supernatant were taken and diluted with 100 μL of ultra-pure water. The mixture was used for LC/MS/MS analysis. All incubations were performed in duplicate.
All calculations were carried out using Microsoft Excel. Peak area ratios (PAR) were determined from extracted ion chromatograms. The in vitro half-life (t1/2) of parent compound was determined by regression analysis of the percent parent disappearance vs. time curve as follows:
The in vitro half-life (in vitro t1/2) was determined from the slope value:
Conversion of the in vitro t1/2 (in minutes) into the in vitro intrinsic clearance (in vitro CLint, in μL/min/1×10^6 cells) was done using the following equation (mean of duplicate determinations): […]
The scaled-up intrinsic clearance (CLint, mL/min/kg), predicted hepatic clearance (CLH, mL/min/kg) and hepatic extraction ratio (ER) were calculated using the following equations:
CLint=(0.693/t1/2)*(1/(hepatocyte concentration (0.5*10^6 cells/mL))*scaling factors (Table (A)
• CLHept-predict=(QH*Scaled-up CLint*fub)/(QH+Scaled-up CLint*fub) • ER=CLH/QH • Where: • V=incubation volume (0.2 mL) • N=number of hepatocytes per well (0.1*10^6 cells) • QH=hepatic blood flow (mL/min/kg) (Table (A)
• fub=fraction of unbound drug in plasma, assumed to be 1 • Values used for calculation of the predicted hepatic clearance parameters data processing rules are outlined in the following tables (A) (B)

T1 sequence (Q5S007 1879-2138 limits assumed): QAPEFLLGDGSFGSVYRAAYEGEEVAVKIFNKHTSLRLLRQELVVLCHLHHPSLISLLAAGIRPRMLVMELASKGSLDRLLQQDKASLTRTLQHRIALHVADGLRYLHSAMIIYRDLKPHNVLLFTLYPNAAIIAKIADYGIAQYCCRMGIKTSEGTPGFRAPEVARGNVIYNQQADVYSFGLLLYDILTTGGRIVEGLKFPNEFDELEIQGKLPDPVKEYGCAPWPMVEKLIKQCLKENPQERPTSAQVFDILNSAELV

| SMILES | hLM Cl (mL/min/kg) [1] | Caco-2 A2B (10^−6 cm/s) (Caco-2 cells) | Caco-2 B2A (10^−6 cm/s) (Caco-2 cells) | Caco-2 ER (Caco-2 cells) | IC50 [2] [nM] | CLhep predicted at 1 µM [3] [mL/min/kg] |
| --- | --- | --- | --- | --- | --- | --- |
| Cc1n[nH]c2c1N=C(c1c(F)cccc1F)Nc1c-2cc(N2CCN(C)[C@H](C(F)(F)F)C2)nc1C (single isomer, unassigned) [Example 36] | I* (I (Intermediate C1)”: 6.3 mL/min/kg≤Hep Cl≤14.7 mL/min/kg) | H (H (High permeability)”: A2B (B2A)>5) | H (H (High permeability)”: A2B (B2A)>5) | N (N (Non-substrate)”: ER<2.5) | < 2 |  |
| Cc1n[nH]c2c1N=C(c1c(F)cccc1F)Nc1c-2cc(N2CCC[C@@]3(CCOC3)C2)nc1C (single isomer, unassigned) [Example 50] | I* (I (Intermediate C1)”: 6.3 mL/min/kg≤Hep Cl≤14.7 mL/min/kg) | H (H (High permeability)”: A2B (B2A)>5) | H (H (High permeability)”: A2B (B2A)>5) | N (N (Non-substrate)”: ER<2.5) | < 2 |  |
| Cc1n[nH]c2c1N=C(c1c(F)cccc1F)Nc1c-2cc(N2CCOCC2)nc1C(F)(F)F [Example 4, 4-[8-(2,6-difluorophenyl)-5-methyl-11-(trifluoromethyl)-3,4,7,9,12-pentazatricyclo[8.4.0.02,6]tetradeca-1(10),2(6),4,7,11,13-hexaen-13-yl]morpholine] | I* (I (Intermediate C1)”: 6.3 mL/min/kg≤Hep Cl≤14.7 mL/min/kg) | M (M (Moderate permeability)”: 1≤A2B (B2A)≤5) | L (L (Low permeability)”: A2B(B2A)<1) | N (N (Non-substrate)”: ER<2.5) | 2 to 100 |  |
| Cc1n[nH]c2c1N=C(c1c(F)cccc1F)Nc1c-2cc(C2CCOCC2)nc1C [Example 38, 8-(2,6-difluorophenyl)-5,11-dimethyl-13-tetrahydropyran-4-yl-3,4,7,9,12-pentazatricyclo[8.4.0.02,6]tetradeca-1(10),2(6),4,7,11,13-hexaene] | I* (I (Intermediate C1)”: 6.3 mL/min/kg≤Hep Cl≤14.7 mL/min/kg) | H (H (High permeability)”: A2B (B2A)>5) | H (H (High permeability)”: A2B (B2A)>5) | N (N (Non-substrate)”: ER<2.5) | < 2 |  |
| Cc1n[nH]c2c1N=C(c1c(F)cccc1F)Nc1c-2cc(N2CC3CC(C2)O3)nc1C [Example 41, 3-(5-(2,6-difluorophenyl)-3,7-dimethyl-1,6-dihydropyrazolo[4,3-d]pyrido[4,3-f][1,3]diazepin-9-yl)-6-oxa-3-azabicyclo[3.1.1]heptane] | I* (I (Intermediate C1)”: 6.3 mL/min/kg≤Hep Cl≤14.7 mL/min/kg) | H (H (High permeability)”: A2B (B2A)>5) | H (H (High permeability)”: A2B (B2A)>5) | N (N (Non-substrate)”: ER<2.5) | < 2 |  |
| Cc1n[nH]c2c1N=C(c1c(F)cccc1F)Nc1c-2cc(N2CCO[C@@H](COC(F)(F)F)C2)nc1C [Example 48, (R)-4-(5-(2,6-difluorophenyl)-3,7-dimethyl-1,6-dihydropyrazolo[4,3-d]pyrido[4,3-f][1,3]diazepin-9-yl)-2-((trifluoromethoxy)methyl)morpholine] | I* (I (Intermediate C1)”: 6.3 mL/min/kg≤Hep Cl≤14.7 mL/min/kg) | M (M (Moderate permeability)”: 1≤A2B (B2A)≤5) | M (M (Moderate permeability)”: 1≤A2B (B2A)≤5) | N (N (Non-substrate)”: ER<2.5) | < 2 |  |
| Cc1n[nH]c2c1N=C(c1c(F)cccc1F)Nc1cnc(-n3ccc(C#N)n3)cc1-2 [Example 57, 1-[8-(2,6-difluorophenyl)-5-methyl-3,4,7,9,12-pentazatricyclo [8.4.0.02,6]tetradeca-1(10),2(6),4,7,11,13-hexaen-13-yl]pyrazole-3-carbonitrile] |  | H (H (High permeability)”: A2B (B2A)>5) | H (H (High permeability)”: A2B (B2A)>5) | N (N (Non-substrate)”: ER<2.5) | 2 to 100 | 6.3 to 14.7 |
| Cc1n[nH]c2c1N=C(c1c(F)cccc1F)Nc1cnc(-c3ccc(C(F)(F)F)nc3)cc1-2 [Example 58, 8-(2,6-difluorophenyl)-5-methyl-13-[6-(trifluoromethyl)-3-pyridyl]-3,4,7,9,12-pentazatricyclo[8.4.0.0^2,6]tetradeca-1(10),2(6),4,7,11,13-hexaene] |  | H (H (High permeability)”: A2B (B2A)>5) | H (H (High permeability)”: A2B (B2A)>5) | N (N (Non-substrate)”: ER<2.5) | < 2 | 6.3 to 14.7 |
